Results taken from patent US20160375155A1, “Collagen Imaging Compositions” (Collagen Medical, LLC, priority 2015, published 2016).
pKd: −log10 of the molar value. Like-named read-outs stand apart in the source and are kept apart here. Bridge positions count the residues as written; N and C are the ends. Square brackets hold non-standard residues; d marks the D form. Peptide text beside a SMILES is read from it. * marks the point of attachment. X1 = O=C(O)CN1CCN(CC(=O)O)CCN([C@H](CCC(=O)*)C(=O)O)CCN(CC(=O)O)CC1; Bip = N[C@@H](Cc1ccc(-c2ccccc2)cc1)C(=O)O

How the values were obtained:
[1] = Relaxivity in PBS (Bruker mq60, 60 MHz); assay type: physicochemical; settings: pH 7.4 PBS at 1.4 T, 37° C.
Description: The relaxivity of Compound ID Nos. 1, 2 and 4 were determined in PBS at 37° C. using a Bruker mq60 spectrometer operating at 60 MHz (1.4 tesla). Samples were equilibrated at concentrations ranging from 0-200 μM for at least 30 minutes at 37° C. T1 was measured using an inversion recovery sequence. Relaxivities were calculated by subtracting the relaxation rate of the buffer […] and then dividing the result by the concentration of Compound.

human type I collagen = target: T1, human type I collagen (Homo sapiens, UniProt P02452+P08123); test: Collagen binding assay, dried human collagen plate; settings: 37° C., pH 7.4; collagen 5 μM; fit to 1 binding site
T1 construct: purchased Advanced Biomatrix 5007-A
T1 sequence (P02452 162-1218 limits assumed): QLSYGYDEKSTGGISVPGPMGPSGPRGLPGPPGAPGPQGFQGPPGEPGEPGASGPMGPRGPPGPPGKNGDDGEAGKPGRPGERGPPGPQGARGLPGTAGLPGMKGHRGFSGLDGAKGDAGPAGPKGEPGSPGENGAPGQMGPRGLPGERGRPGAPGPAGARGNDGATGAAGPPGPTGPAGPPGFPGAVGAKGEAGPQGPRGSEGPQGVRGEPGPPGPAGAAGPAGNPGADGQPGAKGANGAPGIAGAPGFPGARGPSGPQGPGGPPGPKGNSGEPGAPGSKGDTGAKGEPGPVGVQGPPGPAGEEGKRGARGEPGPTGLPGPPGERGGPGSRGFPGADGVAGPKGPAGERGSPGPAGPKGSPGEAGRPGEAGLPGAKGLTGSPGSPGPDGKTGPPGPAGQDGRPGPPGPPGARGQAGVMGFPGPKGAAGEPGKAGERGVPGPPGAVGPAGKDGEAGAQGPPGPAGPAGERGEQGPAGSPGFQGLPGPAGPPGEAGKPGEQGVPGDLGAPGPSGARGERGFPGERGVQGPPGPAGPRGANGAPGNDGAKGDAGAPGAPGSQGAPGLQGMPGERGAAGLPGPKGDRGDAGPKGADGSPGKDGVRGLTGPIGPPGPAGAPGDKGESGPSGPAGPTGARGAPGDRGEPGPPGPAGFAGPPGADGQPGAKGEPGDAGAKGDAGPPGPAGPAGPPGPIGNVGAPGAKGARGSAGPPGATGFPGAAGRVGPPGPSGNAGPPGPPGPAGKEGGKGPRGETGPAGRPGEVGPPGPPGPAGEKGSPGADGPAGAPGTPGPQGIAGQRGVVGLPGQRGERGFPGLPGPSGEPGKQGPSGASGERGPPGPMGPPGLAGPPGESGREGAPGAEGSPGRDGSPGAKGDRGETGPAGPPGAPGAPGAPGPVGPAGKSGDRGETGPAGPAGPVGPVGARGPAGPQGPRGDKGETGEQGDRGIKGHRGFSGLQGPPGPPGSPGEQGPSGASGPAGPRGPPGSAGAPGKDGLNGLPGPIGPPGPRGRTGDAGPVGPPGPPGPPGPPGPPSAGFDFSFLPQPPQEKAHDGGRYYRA
T1 sequence (P08123 80-1119 limits assumed): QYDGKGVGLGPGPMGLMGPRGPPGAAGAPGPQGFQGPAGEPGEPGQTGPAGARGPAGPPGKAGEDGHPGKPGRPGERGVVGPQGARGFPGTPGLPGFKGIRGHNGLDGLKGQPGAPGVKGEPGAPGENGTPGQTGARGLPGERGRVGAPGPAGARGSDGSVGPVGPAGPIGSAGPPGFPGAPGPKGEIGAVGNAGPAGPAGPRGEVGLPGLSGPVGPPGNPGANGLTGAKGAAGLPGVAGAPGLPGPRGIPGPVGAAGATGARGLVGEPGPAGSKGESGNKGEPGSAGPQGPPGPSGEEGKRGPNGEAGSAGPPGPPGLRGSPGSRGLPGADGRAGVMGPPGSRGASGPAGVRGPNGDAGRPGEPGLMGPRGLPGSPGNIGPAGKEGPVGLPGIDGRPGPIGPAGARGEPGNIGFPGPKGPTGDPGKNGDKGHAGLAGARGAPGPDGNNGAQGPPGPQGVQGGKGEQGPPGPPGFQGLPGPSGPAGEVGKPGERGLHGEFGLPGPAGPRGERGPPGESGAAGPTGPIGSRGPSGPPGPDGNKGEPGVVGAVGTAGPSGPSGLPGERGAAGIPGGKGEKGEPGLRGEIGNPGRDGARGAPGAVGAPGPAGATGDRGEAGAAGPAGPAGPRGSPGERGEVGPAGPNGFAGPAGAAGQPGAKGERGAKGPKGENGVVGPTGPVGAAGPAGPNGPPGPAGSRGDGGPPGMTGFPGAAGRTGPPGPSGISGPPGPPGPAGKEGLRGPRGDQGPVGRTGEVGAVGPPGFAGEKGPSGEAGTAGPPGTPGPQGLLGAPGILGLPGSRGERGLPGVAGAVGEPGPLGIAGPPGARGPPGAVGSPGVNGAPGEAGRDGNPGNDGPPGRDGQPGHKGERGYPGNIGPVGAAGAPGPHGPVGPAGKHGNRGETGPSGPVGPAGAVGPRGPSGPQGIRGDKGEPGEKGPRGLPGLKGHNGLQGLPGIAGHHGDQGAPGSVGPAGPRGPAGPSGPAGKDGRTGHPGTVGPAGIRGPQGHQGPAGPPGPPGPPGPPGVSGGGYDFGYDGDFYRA
Description: 10 ml of a solution of 3 mg/ml of human type I collagen (VitroCol solution, Advanced Biomatrix, cat#5007-A) is dialyzed against 10 mM Phosphate (NaH2PO4), pH 4.2 at 4° C. with three changes of the dialysis buffer. The protein concentration is determined by liquid chromatography determination of hydroxyproline (P. Hutson, J. Chromatogr. B, 791 (2003) 427-430).
(§1) Ice-cold 1×PBS pH 10.8 is added to the collagen solution for a final collagen concentration of 10 μM, pH 7.4. Collagen solutions are gelled and dried down in the wells of a 96 well microtiter plate (Corning Polystyrene Flat Bottom, cat#3641). […] The final well content of gelled collagen is measured by determination of hydroxyproline and is around 180 μg/ml.
(§2) a serial dilution of 0.2 μM-30 μM of the peptide chelate is prepared in PBS, pH 7.4 (˜300 μL of solution for each concentration). […] The concentration of free, unbound compound in the sample supernatants and the concentration of compound in the reserved (total) sample are determined by ICP-MS (Agilent 7500, gadolinium concentration). The concentration of compound bound to collagen is determined as [bound]=[total]−[unbound].
(§3) The binding of compounds to human, rat and dog collagen (5 μM) was measured over the concentration range 0.2-5 μM of Comp ID Nos.: 1-4. […]

[2] = target: T2, rat collagen (acid soluble, type I, rat tail) (Rattus norvegicus, UniProt P02454+P02466); test: Collagen binding assay, dried rat collagen plate; settings: 37° C., pH 7.4; collagen 5 μM; fit to 1 binding site
T2 construct: rat collagen (acid soluble, type I, rat tail, Millipore Inc, cat#08-115); purchased Millipore Inc 08-115; host or cells: rat tail
T2 sequence (P02454 152-1207 limits assumed): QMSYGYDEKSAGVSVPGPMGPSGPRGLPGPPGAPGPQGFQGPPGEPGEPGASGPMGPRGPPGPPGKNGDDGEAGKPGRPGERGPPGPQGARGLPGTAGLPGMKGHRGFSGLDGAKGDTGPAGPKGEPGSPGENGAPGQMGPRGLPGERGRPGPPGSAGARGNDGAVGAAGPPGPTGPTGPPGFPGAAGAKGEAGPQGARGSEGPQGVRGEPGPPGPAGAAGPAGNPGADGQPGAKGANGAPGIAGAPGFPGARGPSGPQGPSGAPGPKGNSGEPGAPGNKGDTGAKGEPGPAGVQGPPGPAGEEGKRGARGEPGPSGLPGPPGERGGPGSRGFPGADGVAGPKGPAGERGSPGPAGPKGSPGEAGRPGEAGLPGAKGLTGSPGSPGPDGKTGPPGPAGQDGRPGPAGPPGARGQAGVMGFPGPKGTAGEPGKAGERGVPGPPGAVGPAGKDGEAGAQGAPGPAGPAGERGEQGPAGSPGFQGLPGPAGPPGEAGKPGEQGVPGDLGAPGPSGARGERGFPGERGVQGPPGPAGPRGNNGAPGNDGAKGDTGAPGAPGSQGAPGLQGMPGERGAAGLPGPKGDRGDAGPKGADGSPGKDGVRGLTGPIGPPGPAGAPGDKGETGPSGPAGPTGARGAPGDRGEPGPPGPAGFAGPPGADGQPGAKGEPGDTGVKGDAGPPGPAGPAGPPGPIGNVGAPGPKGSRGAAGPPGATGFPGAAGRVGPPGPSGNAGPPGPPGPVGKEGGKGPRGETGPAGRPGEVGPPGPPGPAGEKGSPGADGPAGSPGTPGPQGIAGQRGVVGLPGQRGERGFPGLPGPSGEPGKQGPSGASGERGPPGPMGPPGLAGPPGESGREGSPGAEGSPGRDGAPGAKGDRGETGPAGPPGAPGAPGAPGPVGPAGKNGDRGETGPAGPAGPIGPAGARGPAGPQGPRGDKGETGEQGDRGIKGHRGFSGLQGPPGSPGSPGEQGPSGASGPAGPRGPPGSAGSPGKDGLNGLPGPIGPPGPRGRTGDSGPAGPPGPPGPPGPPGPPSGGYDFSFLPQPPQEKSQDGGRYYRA
T2 sequence (P02466 86-1125 limits assumed): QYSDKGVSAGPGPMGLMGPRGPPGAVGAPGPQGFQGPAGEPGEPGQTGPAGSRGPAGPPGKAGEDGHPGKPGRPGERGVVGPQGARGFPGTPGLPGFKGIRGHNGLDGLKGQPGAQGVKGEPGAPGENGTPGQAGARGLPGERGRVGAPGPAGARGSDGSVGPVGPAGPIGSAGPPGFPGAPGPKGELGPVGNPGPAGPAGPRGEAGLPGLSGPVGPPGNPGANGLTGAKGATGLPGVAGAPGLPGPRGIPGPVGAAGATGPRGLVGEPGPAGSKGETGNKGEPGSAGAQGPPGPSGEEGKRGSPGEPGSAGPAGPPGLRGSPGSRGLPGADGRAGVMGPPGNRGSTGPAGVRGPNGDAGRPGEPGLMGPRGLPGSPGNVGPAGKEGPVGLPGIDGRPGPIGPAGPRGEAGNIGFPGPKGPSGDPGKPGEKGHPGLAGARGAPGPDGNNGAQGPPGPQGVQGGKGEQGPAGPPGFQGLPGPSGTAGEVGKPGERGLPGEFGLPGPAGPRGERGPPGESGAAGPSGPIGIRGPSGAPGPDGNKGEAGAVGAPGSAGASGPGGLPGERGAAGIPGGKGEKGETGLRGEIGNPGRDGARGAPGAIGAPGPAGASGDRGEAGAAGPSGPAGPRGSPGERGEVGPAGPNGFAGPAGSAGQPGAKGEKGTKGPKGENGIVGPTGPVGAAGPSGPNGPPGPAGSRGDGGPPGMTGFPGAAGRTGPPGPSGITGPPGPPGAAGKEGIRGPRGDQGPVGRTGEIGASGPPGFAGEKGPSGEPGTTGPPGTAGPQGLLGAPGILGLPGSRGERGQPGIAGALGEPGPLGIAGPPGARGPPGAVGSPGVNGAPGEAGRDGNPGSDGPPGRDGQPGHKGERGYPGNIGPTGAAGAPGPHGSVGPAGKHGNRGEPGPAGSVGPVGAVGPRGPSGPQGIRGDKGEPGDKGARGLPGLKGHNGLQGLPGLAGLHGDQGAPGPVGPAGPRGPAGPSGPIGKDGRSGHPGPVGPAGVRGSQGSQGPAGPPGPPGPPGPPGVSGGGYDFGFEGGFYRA
Description: 10 ml of a 3.79 mg/mL solution of rat collagen (acid soluble, type I, rat tail, Millipore Inc, cat#08-115) is dialyzed against 10 mM Phosphate (NaH2PO4), pH 4.2 at 4° C. with three changes of the dialysis buffer.
as §1, with “cat#3641). 70 μl of 10 μM collagen is aliquoted into each well in every other lane in the plate (48 wells) and the plate is incubated at 37° C. for 18 hours to form a gel and evaporate to dryness.” for “cat#3641).”
as §2, §3

[3] = target: Native canine Collagen Type I and III protein; test: Collagen binding assay, dried dog collagen plate; settings: 37° C., pH 7.4; collagen 5 μM; fit to 1 binding site
Description: Canine collagen (Native canine Collagen Type I and III protein, YO protein AB, cat#739) is dissolved in 0.5 M acetic acid at 3.3 mg/ml by vortexing and shaking overnight at 4° C. The solution is then dialyzed against 10 mM Phosphate (NaH2PO4), pH 4.2 at 4° C. with three changes of the dialysis buffer.
Ice-cold 1×PBS pH 10.8 is added to the collagen solution for a final collagen concentration of 10 μM, pH 7.4. Collagen solutions are gelled and dried down in the wells of a 96 well microtiter plate (Corning Polystyrene Flat Bottom, cat#3641). 70 μl of 10 μM collagen is aliquoted into each well in every other lane in the plate (48 wells) and the plate is incubated at 37° C. for 18 hours to form a gel and evaporate to dryness. Ungelled collagen is removed by washing the collagen films with 200 μl 1×PBS pH 7.4 (four times, 15 min per wash). The thin collagen fibril film remains, coating the bottom of each well. After washing by PBS the plate is again dried at 37° C. for 2 hours and is stored at −20° C. The final well content of gelled collagen is measured by determination of hydroxyproline and is around 180 μg/ml.
a serial dilution of 0.2 μM-30 μM of the peptide chelate is prepared in PBS, pH 7.4 (˜300 μL of solution for each concentration). 90 μl of each concentration is also reserved in a HPLC glass vial as a sample to measure the total concentration. 140 μL of each dilution of peptide chelate is added to wells containing and non-containing collagen (control for nonspecific plastic binging). The plate is then incubated on a shaker table (300 rpm) for 2 hours at room temperature to allow the compound to bind. […] The concentration of free, unbound compound in the sample supernatants and the concentration of compound in the reserved (total) sample are determined by ICP-MS (Agilent 7500, gadolinium concentration). The concentration of compound bound to collagen is determined as [bound]=[total]−[unbound].
as §3

[4] = system: acute and chronic myocardial infarct (fibrosis); assay type: in vivo, canine; settings: for CNR between infarct and blood: Compound ID No. 1 0.0075 mmol/kg, extracellular gadolinium 0.2 mmol/kg
From the text: An experimental protocol was developed to test the ability of Compound ID No. 1 to differentiate acute from chronic myocardial infarction in an in-vivo large animal (canine) model. In this model, early following acute myocardial infarction, pathologic fibrosis has not fully developed within the infarct zone (fibrosis-poor), whereas in chronic MI (˜8 weeks following MI), dense fibrosis fully replaced necrotic myocardium (fibrosis-rich).
In the myocardial fibrosis canine model, a vascular occluder was placed surgically around the left anterior descending coronary artery (LAD) to allow occlusion and reperfusion. Two animals were studied following acute MI and two additional animals were studied both following acute MI, and chronically at 8 weeks. The LAD vessel was completely occluded for 70-90 minutes and then released to allow reperfusion. The chest was sutured closed, and the animal was allowed to recover. Imaging was performed on a 3 T clinical scanner in an acute (<1 week, minimal fibrosis expected in acute necrosis) and chronic (8 weeks, healing complete, necrotic myocardium replaced by dense collagenous scar) time point after infarction. For each time point, the animals undergo 2 scans separated by 48 hours with conventional gadolinium contrast (0.2 mmol/kg GdDTPA) and Compound ID No. 1 (0.0075 mmol/kg).
Imaging was performed on a 3 T clinical scanner (Siemens Verio). Breath holding was achieved by temporarily turning off the animal ventilator, and all images were ECG gated. Standard short and long axis cine imaging was performed throughout the left ventricle to identify left ventricular function and regional wall motion abnormalities. Delayed enhancement imaging (segmented 2D inversion recovery gradient echo) was performed prior to and serially following Compound ID No. 1 administration. Two strategies were employed: (1) a fixed inversion time was chosen to null pre-contrast myocardium (TI˜650 ms), and (2) a variable inversion time set to null post-contrast myocardium as is performed in traditional delayed enhancement imaging.
After imaging, animals were euthanized and post mortem analysis of myocardium was performed. Tissue was assessed grossly by histopathologic staining with triphenyltetrazolium chloride for myocardial infarction, and microscopically with Masson's trichrome staining for fibrosis. Additionally quantitative tissue analysis for hydroxyproline was used to measure total collagen content in tissue and compared to tissue gadolinium concentration by inductively coupled plasma-mass spectrometry. MR data was analyzed quantitatively for conspicuity of infarction and image quality as well as contrast to noise ratio (CNR) for infarct-normal myocardium and infarct-blood.

myocardial collagen = settings: rat MI model, healthy and infarcted heart
Description: Myocardial infarction was induced in Sprague Dawley rats by occlusion of the left anterior descending coronary artery followed by reperfusion. The rats were anesthetized with an intraperitoneal (i.p.) injection of 100 μg pentobarbital sodium per gram body weight and a thorocotamy was performed. The pericardium was removed and the left anterior artery was sutured with a 7.0 silk suture for 60 minutes after which reperfusion was established.
Animals were sacrificed at 60 minutes post-injection and the heart removed and sectioned for analysis.
The slope for this correlation is a measure of efficacy.

Structure (SMILES) | R1 (relaxivity) [1] [mM⁻¹ s⁻¹] | pKd (human type I collagen) | pKd [2] | pKd [3] | MR image uptake in scar vs healthy myocardium ([4]; chronic myocardial infarction, FIG. 25b) | calculated slope, hydroxyproline vs. gadolinium concentration (myocardial collagen) | CNR between infarct and blood ([4]; acute MI) | CNR between infarct and blood ([4]; chronic MI (8 weeks))
CC(C)C[C@H](NC(=O)[C@@H]1CSSC[C@H](NC(=O)[C@H](Cc2c[nH]cn2)NC(=O)[C@H](Cc2c[nH]c3ccccc23)NC(=O)[C@H](CCCCNC(=O)CC[C@H](C(=O)O)N2CCN(CC(=O)O)CCN(CC(=O)O)CCN(CC(=O)O)CC2)NC(=O)CC[C@H](C(=O)O)N2CCN(CC(=O)O)CCN(CC(=O)O)CCN(CC(=O)O)CC2)C(=O)N[C@@H]([C@@H](C)O)C(=O)N[C@@H]([C@@H](C)O)C(=O)N[C@@H](CCCCNC(=O)CC[C@H](C(=O)O)N2CCN(CC(=O)O)CCN(CC(=O)O)CCN(CC(=O)O)CC2)C(=O)N[C@@H](Cc2ccccc2)C(=O)N2CCC[C@H]2C(=O)N[C@@H](Cc2c[nH]cn2)C(=O)N[C@@H](Cc2c[nH]cn2)C(=O)N[C@@H](Cc2ccc(O)cc2)C(=O)N1)C(=O)N[C@@H](Cc1ccc(O)cc1)C(=O)N[C@@H](Cc1ccc(-c2ccccc2)cc1)C(N)=O [Compound ID No. 2] (X1-K(X1)WHCTTK(X1)FPHHYCLY[Bip]-NH2; disulfide 4-13) | 42.9 | 5.31 | 4.69 | 5.31 | early uptake | 3184 |  | 
CC(C)[C@H](NC(=O)[C@@H]1CSSC[C@H](NC(=O)[C@H](Cc2c[nH]cn2)NC(=O)[C@H](Cc2c[nH]c3ccccc23)NC(=O)[C@H](CCCCNC(=O)CC[C@H](C(=O)O)N2CCN(CC(=O)O)CCN(CC(=O)O)CCN(CC(=O)O)CC2)NC(=O)CC[C@H](C(=O)O)N2CCN(CC(=O)O)CCN(CC(=O)O)CCN(CC(=O)O)CC2)C(=O)N[C@@H](Cc2ccc(O)cc2)C(=O)N[C@@H]([C@@H](C)O)C(=O)N[C@@H](CCCCNC(=O)CC[C@H](C(=O)O)N2CCN(CC(=O)O)CCN(CC(=O)O)CCN(CC(=O)O)CC2)C(=O)N[C@@H](Cc2ccccc2)C(=O)N2CCC[C@H]2C(=O)N[C@@H](Cc2c[nH]cn2)C(=O)N[C@@H](Cc2c[nH]cn2)C(=O)N[C@@H](Cc2ccc(O)cc2)C(=O)N1)C(=O)N[C@@H](Cc1ccc(O)cc1)C(=O)N[C@@H](Cc1ccc(-c2ccccc2)cc1)C(N)=O [Compound ID No. 4] (X1-K(X1)WHCYTK(X1)FPHHYCVY[Bip]-NH2; disulfide 4-13) | 51.2 | 5.02 | 5.34 | 5.70 |  | 3057 |  | 
O=C([O-])CN(CCN(CC(=O)[O-])CC(=O)O)CCN(CC(=O)[O-])CC(=O)O.[Gd+3] [extracellular gadolinium, gadolinium diethylenetriaminepentaacetate, reference compound] |  |  |  |  |  |  | 6.3±3.4 | 5±1.3
